The record followed here is patent US20050075269A1, “Substituted benzofuran-2-carboxamides derivatives” (priority 2001, published 2005).

Counter-ions that a name gives are not always drawn.

`CNCCNC(=O)c1cc2cc(N3CCN(CCCCc4c[nH]c5ccc(C#N)cc45)CC3)ccc2o1` (as salt: hydrochloride) [f), N-(2-methylaminoethyl)-5-{4-[4-(5-cyano-1H-indol-3-yl)butyl]piperazin-1-yl}benzofuran-2-carboxamide] returned a melting point greater than 233 °C.

As a reminder, the melting point is the temperature, or range, at which the solid turns liquid.
